{"source": "PubChem BioAssay AID1259407", "about": "(Chemical Carcinogenesis Research Information System (CCRIS), 2018)", "system": "CCRIS mutagenicity, Ames/micronucleus/aberration tests", "test": "CCRIS mutagenicity studies", "note": "Calls of active or inactive are those of the source. The rule behind the calls is not given here.", "data": [{"smiles": "c1ccccc1", "values": [{"measurement": "mutagenic call", "setting": "End Point: IN VITRO CHROMOSOMAL ABERRATIONS, Test System: BOVINE PERIPHERAL LYMPHOCYTES, Metabolic Activation: NONE", "result": "active; positive (structural changes)"}, {"measurement": "mutagenic call", "setting": "End Point: IN VITRO CHROMOSOMAL ABERRATIONS, Test System: BOVINE PERIPHERAL LYMPHOCYTES, Metabolic Activation: NONE, Method: FISH", "result": "active; positive (structural changes)"}, {"measurement": "mutagenic call", "setting": "End Point: IN VITRO CHROMOSOMAL ABERRATIONS, Test System: BOVINE PERIPHERAL LYMPHOCYTES, Metabolic Activation: RAT, S-9, AROCLOR 1254", "result": "active; positive (structural changes)"}, {"measurement": "mutagenic call", "setting": "End Point: IN VITRO CHROMOSOMAL ABERRATIONS, Test System: CHO CELLS, Metabolic Activation: NONE", "result": "inactive; negative"}, {"measurement": "mutagenic call", "setting": "End Point: IN VITRO CHROMOSOMAL ABERRATIONS, Test System: CHO CELLS, Metabolic Activation: RAT, LIVER, S-9, AROCLOR 1254", "result": "inactive; negative"}, {"measurement": "mutagenic call", "setting": "End Point: IN VITRO MICRONUCLEUS, Test System: AHH-1 CELLS, Metabolic Activation: NONE", "result": "inactive; negative"}, {"measurement": "mutagenic call", "setting": "End Point: IN VITRO MICRONUCLEUS, Test System: BOVINE LYMPHOCYTES, Metabolic Activation: NONE", "result": "active; positive"}, {"measurement": "mutagenic call", "setting": "End Point: IN VITRO MICRONUCLEUS, Test System: BOVINE LYMPHOCYTES, Metabolic Activation: S-9 MIX, AROCLOR 1254", "result": "active; positive"}, {"measurement": "mutagenic call", "setting": "End Point: IN VITRO MICRONUCLEUS, Test System: CHL/IU CELLS, Metabolic Activation: RAT, LIVER, S-9, PHENOBARBITAL AND 5,6-BENZOFLAVONE", "result": "active; positive"}, {"measurement": "mutagenic call", "setting": "End Point: IN VITRO MICRONUCLEUS, Test System: MCL-5 CELLS, Metabolic Activation: NONE", "result": "active; positive"}, {"measurement": "mutagenic call", "setting": "End Point: IN VITRO MICRONUCLEUS, Test System: V79 CELLS, Metabolic Activation: RAT, LIVER, S-9, AROCLOR 1254", "result": "inactive; negative"}, {"measurement": "mutagenic call", "setting": "End Point: IN VIVO CHROMOSOMAL ABERRATIONS, Test System: DUAL COLOR PAINTING OF CHROMOSOMES 8 AND 21 FROM PERIPHERAL LYMPHOCYTES, METAPHASE SPREADS, Species: HUMAN, Strain/Sex: MALE, FEMALE, Route: INHALATION (WORKPLACE), Method: FISH", "result": "active; positive"}, {"measurement": "mutagenic call", "setting": "End Point: IN VIVO CHROMOSOMAL ABERRATIONS, Test System: HUMAN PERIPHERAL LYMPHOCYTES, Species: HUMAN, Route: INHALATION (WORKPLACE), Method: FISH", "result": "breaks in chromosomes 1 and 9"}, {"measurement": "mutagenic call", "setting": "End Point: IN VIVO CHROMOSOMAL ABERRATIONS, Test System: LYMPHOCYTES, Species: HUMAN, Route: PROBABLY INHALATION, Method: FISH (INTERPHASE OR METAPHASE; CHROMOSOMES 7, 8, 9)", "result": "active; positive (structural and ploidy changes)"}, {"measurement": "mutagenic call", "setting": "End Point: IN VIVO CHROMOSOMAL ABERRATIONS, Test System: PERIPHERAL BLOOD LYMPHOCYTES, Species: HUMAN (COKE OVEN WORKERS), Route: INHALATION, Method: FISH", "result": "active; positive (monosomy and trisomy of chromosomes 8 and 21)"}, {"measurement": "mutagenic call", "setting": "End Point: IN VIVO CHROMOSOMAL ABERRATIONS, Test System: PERIPHERAL BLOOD LYMPHOCYTES, Species: HUMAN (PETROLEUM REFINERY WORKERS), Strain/Sex: MALE, Route: INDUSTRIAL EXPOSURE", "result": "active; positive"}, {"measurement": "mutagenic call", "setting": "End Point: IN VIVO CHROMOSOMAL ABERRATIONS, Test System: PERIPHERAL HUMAN LYMPHOCYTES, Species: HUMAN, Route: INDUSTRIAL EXPOSURE (INHALATION)", "result": "active; positive (ploidy)"}, {"measurement": "mutagenic call", "setting": "End Point: IN VIVO MICRONUCLEUS, Test System: BONE MARROW POLYCHROMATIC ERYTHROCYTES, Species: MOUSE, Strain/Sex: CD-1/MALE, Route: ORAL (GAVAGE)", "result": "active; positive"}, {"measurement": "mutagenic call", "setting": "End Point: IN VIVO MICRONUCLEUS, Test System: BONE MARROW, Species: MOUSE, Strain/Sex: B6C3F1/MALE, Route: GAVAGE", "result": "active; positive"}, {"measurement": "mutagenic call", "setting": "End Point: IN VIVO MICRONUCLEUS, Test System: SPLENOCYTES, Species: MOUSE, Strain/Sex: CD-1/MALE, Route: ORAL (GAVAGE)", "result": "active; positive"}, {"measurement": "mutagenic call", "setting": "End Point: In vivo micronucleus, Test System: Bone marrow polychromatic erythrocytes, Species: Mouse, Strain/Sex: CD-1/Male, Route: Inhalation", "result": "active; positive"}, {"measurement": "mutagenic call", "setting": "End Point: In vivo micronucleus, Test System: Peripheral blood normochromatic erythrocytes, Species: Mouse, Strain/Sex: B6.129-Cdkn2atm1Rdp (i.e. Haploinsufficient p16Ink4a/p19Arf)/Female, Route: Gavage", "result": "active; positive (deletions in the cdkn2a gene predispose rodents to cancer at multiple"}, {"measurement": "mutagenic call", "setting": "End Point: In vivo micronucleus, Test System: Peripheral blood normochromatic erythrocytes, Species: Mouse, Strain/Sex: B6.129-Cdkn2atm1Rdp (i.e. Haploinsufficient p16Ink4a/p19Arf)/Male, Route: Gavage", "result": "active; positive (deletions in the cdkn2a gene predispose rodents to cancer at multiple"}, {"measurement": "mutagenic call", "setting": "Test System: AMES SALMONELLA TYPHIMURIUM, Strain/Indicator: TA97, Metabolic Activation: HAMSTER LIVER S-9, AROCLOR 1254 (10 OR 30%), Method: PREINCUBATION", "result": "inactive; negative"}, {"measurement": "mutagenic call", "setting": "Test System: AMES SALMONELLA TYPHIMURIUM, Strain/Indicator: TA97, Metabolic Activation: NONE, Method: PREINCUBATION", "result": "inactive; negative"}, {"measurement": "mutagenic call", "setting": "Test System: AMES SALMONELLA TYPHIMURIUM, Strain/Indicator: TA97, Metabolic Activation: NONE, Method: STANDARD PLATE", "result": "inactive; negative"}, {"measurement": "mutagenic call", "setting": "Test System: AMES SALMONELLA TYPHIMURIUM, Strain/Indicator: TA97, Metabolic Activation: RAT LIVER S-9, AROCLOR 1254 (10 OR 30%), Method: PREINCUBATION", "result": "inactive; negative"}, {"measurement": "mutagenic call", "setting": "Test System: AMES SALMONELLA TYPHIMURIUM, Strain/Indicator: TA97, Metabolic Activation: RAT, LIVER, S-9, AROCLOR 1254, Method: STANDARD PLATE", "result": "inactive; negative"}, {"measurement": "mutagenic call", "setting": "Test System: AMES SALMONELLA TYPHIMURIUM, Strain/Indicator: TA97, Metabolic Activation: S-9, Method: STANDARD PLATE", "result": "inactive; negative"}, {"measurement": "mutagenic call", "setting": "Test System: AMES SALMONELLA TYPHIMURIUM, Strain/Indicator: TA98, Metabolic Activation: HAMSTER LIVER S-9, AROCLOR 1254 (10 OR 30%), Method: PREINCUBATION", "result": "inactive; negative"}, {"measurement": "mutagenic call", "setting": "Test System: AMES SALMONELLA TYPHIMURIUM, Strain/Indicator: TA98, Metabolic Activation: NONE, Method: PREINCUBATION", "result": "inactive; negative"}, {"measurement": "mutagenic call", "setting": "Test System: AMES SALMONELLA TYPHIMURIUM, Strain/Indicator: TA98, Metabolic Activation: RAT LIVER S-9, AROCLOR 1254 (10 OR 30%), Method: PREINCUBATION", "result": "inactive; negative"}, {"measurement": "mutagenic call", "setting": "Test System: AMES SALMONELLA TYPHIMURIUM, Strain/Indicator: TA98, Metabolic Activation: RAT, LIVER, S-9, AROCLOR 1254, Method: DESICCATOR", "result": "inactive; negative"}, {"measurement": "mutagenic call", "setting": "Test System: AMES SALMONELLA TYPHIMURIUM, Strain/Indicator: TA98, Metabolic Activation: RAT, LIVER, S-9, AROCLOR 1254, Method: STANDARD PLATE", "result": "inactive; negative"}, {"measurement": "mutagenic call", "setting": "Test System: AMES SALMONELLA TYPHIMURIUM, Strain/Indicator: TA98, Metabolic Activation: RAT, LIVER, S-9, AROCLOR, Method: STANDARD PLATE", "result": "inactive; negative"}, {"measurement": "mutagenic call", "setting": "Test System: AMES SALMONELLA TYPHIMURIUM, Strain/Indicator: TA98, Metabolic Activation: RAT, LIVER, S-9, ETHANOL, Method: STANDARD PLATE", "result": "inactive; negative"}, {"measurement": "mutagenic call", "setting": "Test System: AMES SALMONELLA TYPHIMURIUM, Strain/Indicator: TA98, Metabolic Activation: RAT, LIVER, S-9, PHENOBARBITAL, Method: STANDARD PLATE", "result": "inactive; negative"}, {"measurement": "mutagenic call", "setting": "Test System: AMES SALMONELLA TYPHIMURIUM, Strain/Indicator: TA98, Metabolic Activation: RAT, LIVER, S-9, PYRAZOLE, Method: STANDARD PLATE", "result": "inactive; negative"}, {"measurement": "mutagenic call", "setting": "Test System: AMES SALMONELLA TYPHIMURIUM, Strain/Indicator: TA98, Metabolic Activation: S-9, Method: STANDARD PLATE", "result": "inactive; negative"}, {"measurement": "mutagenic call", "setting": "Test System: AMES SALMONELLA TYPHIMURIUM, Strain/Indicator: TA100, Metabolic Activation: HAMSTER LIVER S-9, AROCLOR 1254 (10 OR 30%), Method: PREINCUBATION", "result": "inactive; negative"}, {"measurement": "mutagenic call", "setting": "Test System: AMES SALMONELLA TYPHIMURIUM, Strain/Indicator: TA100, Metabolic Activation: NONE, Method: DESICCATOR", "result": "inactive; negative"}, {"measurement": "mutagenic call", "setting": "Test System: AMES SALMONELLA TYPHIMURIUM, Strain/Indicator: TA100, Metabolic Activation: NONE, Method: PREINCUBATION", "result": "inactive; negative"}, {"measurement": "mutagenic call", "setting": "Test System: AMES SALMONELLA TYPHIMURIUM, Strain/Indicator: TA100, Metabolic Activation: RAT LIVER S-9, AROCLOR 1254 (10 OR 30%), Method: PREINCUBATION", "result": "inactive; negative"}, {"measurement": "mutagenic call", "setting": "Test System: AMES SALMONELLA TYPHIMURIUM, Strain/Indicator: TA100, Metabolic Activation: RAT, LIVER, S-9, AROCLOR 1254, Method: DESICCATOR", "result": "inactive; negative"}, {"measurement": "mutagenic call", "setting": "Test System: AMES SALMONELLA TYPHIMURIUM, Strain/Indicator: TA100, Metabolic Activation: RAT, LIVER, S-9, AROCLOR 1254, Method: STANDARD PLATE", "result": "inactive; negative"}, {"measurement": "mutagenic call", "setting": "Test System: AMES SALMONELLA TYPHIMURIUM, Strain/Indicator: TA100, Metabolic Activation: RAT, LIVER, S-9, AROCLOR, Method: STANDARD PLATE", "result": "inactive; negative"}, {"measurement": "mutagenic call", "setting": "Test System: AMES SALMONELLA TYPHIMURIUM, Strain/Indicator: TA100, Metabolic Activation: RAT, LIVER, S-9, ETHANOL, Method: STANDARD PLATE", "result": "inactive; negative"}]}]}
